Earlier results in US20220175695A1, “FORTIFICANT COMPOSITION” (Conopco, Inc., d/b/a UNILEVER, priority 2019, published 2022).

Settings: without the composition

## Vitamin A
  time Vitamin A is stable in the presence of water: < 4 h
